Legend:
[1] = target: T1, Dihydropteroate synthase (Escherichia coli K-12) (UniProt P0AC13); assay: Inhibition of E. uM; conditions: concentration not given here
T1 sequence (whole entry): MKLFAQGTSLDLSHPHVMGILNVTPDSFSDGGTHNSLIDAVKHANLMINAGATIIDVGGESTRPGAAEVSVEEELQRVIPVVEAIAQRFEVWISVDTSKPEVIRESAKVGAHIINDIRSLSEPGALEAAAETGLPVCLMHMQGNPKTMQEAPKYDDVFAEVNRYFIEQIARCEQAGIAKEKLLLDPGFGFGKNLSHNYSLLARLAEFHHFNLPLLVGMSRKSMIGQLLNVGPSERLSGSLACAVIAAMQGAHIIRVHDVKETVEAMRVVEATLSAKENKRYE

Enterococcus faecium [2] = assay: Antimicrobial activity against Streptococcus faecium strain, MTX-resistant; assay type: functional; set-up: unit not given here
Lacticaseibacillus casei [3] = assay: Antimicrobial activity against Lactobacillus casei strain ATCC 7469; assay type: functional; set-up: unit not given here
Lacticaseibacillus casei [4] = assay: Antimicrobial activity against Lactobacillus casei MTX-resistant strain; assay type: functional; set-up: unit not given here
Enterococcus faecium [5] = assay: Antimicrobial activity against Streptococcus faecium strain, ATCC 8043; assay type: functional
Enterococcus faecium [6] = assay: Antimicrobial activity against Streptococcus faecium strain ATCC 8043; assay type: functional; set-up: unit not given here
Thymidylate synthase [7] = target: T2, Thymidylate synthase (Lactobacillus casei, UniProt P00469); assay: Evaluated for the inhibition of thymidylate synthase in Lactobacillus casei; set-up: species or system Lacticaseibacillus casei
T2 sequence (P00469 whole entry): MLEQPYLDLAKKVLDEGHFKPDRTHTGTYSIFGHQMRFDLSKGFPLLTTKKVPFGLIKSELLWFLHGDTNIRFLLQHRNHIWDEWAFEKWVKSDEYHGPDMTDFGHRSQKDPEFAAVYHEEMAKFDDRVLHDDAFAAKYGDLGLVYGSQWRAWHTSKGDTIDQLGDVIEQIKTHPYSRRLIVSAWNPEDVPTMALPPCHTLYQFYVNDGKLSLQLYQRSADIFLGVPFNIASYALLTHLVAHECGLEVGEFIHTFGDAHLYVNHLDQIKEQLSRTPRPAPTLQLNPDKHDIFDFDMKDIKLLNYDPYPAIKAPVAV

Dihydrofolate reductase = Dihydrofolate reductase (Lactobacillus casei, UniProt P00381); assay: Evaluated for the inhibition of dihydrofolate reductase in Lactobacillus casei; set-up: species or system Lacticaseibacillus casei
Thymidylate synthase [8] = target: T3, Thymidylate synthase (Mus musculus, UniProt P07607); assay: Evaluated for the inhibition of thymidylate synthase in intact L1210 cells; assay type: cell-based
Thymidylate synthase [9] = target: T3, Thymidylate synthase; assay: Evaluated for the inhibition of thymidylate synthase in permeabilised L1210 cells; assay type: cell-based
[10] = test system: Thymidylate synthase (Bos taurus); assay: Inhibition of Calf thymus thymidylate synthase in the presence of 20 uM

Dihydrofolate reductase, sequence (P00381 whole entry): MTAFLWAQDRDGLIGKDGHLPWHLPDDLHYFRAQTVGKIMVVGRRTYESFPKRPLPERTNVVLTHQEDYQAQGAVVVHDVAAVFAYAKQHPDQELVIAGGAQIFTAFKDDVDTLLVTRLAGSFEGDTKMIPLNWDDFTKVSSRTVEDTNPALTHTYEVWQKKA
T3 sequence (P07607 whole entry): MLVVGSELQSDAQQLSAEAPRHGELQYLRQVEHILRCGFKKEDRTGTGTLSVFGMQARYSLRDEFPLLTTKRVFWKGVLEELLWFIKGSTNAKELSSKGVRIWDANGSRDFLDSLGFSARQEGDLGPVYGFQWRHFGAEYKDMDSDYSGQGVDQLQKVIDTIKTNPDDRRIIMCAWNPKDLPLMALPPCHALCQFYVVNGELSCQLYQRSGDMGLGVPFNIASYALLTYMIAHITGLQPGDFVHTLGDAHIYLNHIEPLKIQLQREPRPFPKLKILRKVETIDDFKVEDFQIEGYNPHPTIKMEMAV

| inhibition [1] [%] | SMILES | Activity (Enterococcus faecium [2]) | Activity (Lacticaseibacillus casei [3]) | Activity (Lacticaseibacillus casei [4]) | Activity (Enterococcus faecium [5]) | Activity (Enterococcus faecium [6]) | IC50 (Thymidylate synthase [7]) [µM] | IC50 (Dihydrofolate reductase) [µM] | IC50 (Thymidylate synthase [8]) [µM] | IC50 (Thymidylate synthase [9]) [µM] | inhibition [10] [%] |
| --- | --- | --- | --- | --- | --- | --- | --- | --- | --- | --- | --- |
| – | CN(CC1CCc2nc(N)nc(O)c2C1)c1ccc(C(=O)O)cc1 (configuration not stated) | 8200 | 15800 | >20000 | – | 5.2 | > 200 | > 200 | – | – | – |
| 7 | Nc1nc(O)c2c(n1)CCC(CBr)C2 (configuration not stated) | – | – | – | – | – | – | – | – | – | – |
| – | Nc1nc(O)c2c(n1)CCC(CNc1ccc(C(=O)NC(CCC(=O)O)C(=O)O)cc1)C2 (configuration not stated) | 900 | 7.5 | >20000 | 140 | – | > 280 | 30 | 1000 | 12 | – |
| – | C#CCN(CC1CCc2nc(N)nc(O)c2C1)c1ccc(C(=O)NC(CCC(=O)O)C(=O)O)cc1 (configuration not stated) | 350 | 4.7 | >10000 | 1.8 | – | 23 | 10 | 1100 | 11 | 50 |
| – | Nc1nc(O)c2c(n1)CCC(CNc1ccc(C(=O)O)cc1)C2 (configuration not stated) | >20000 | >20000 | – | – | 400 | > 200 | > 200 | – | – | – |
| – | CN(CC1CCc2nc(N)[nH]c(=O)c2C1)c1ccc(C(=O)NC(CCC(=O)O)C(=O)O)cc1 (configuration not stated) | – | – | – | – | – | 120 | 16 | – | – | – |
| – | C#CCN(CC1CCc2nc(N)nc(O)c2C1)c1ccc(C(=O)O)cc1 (configuration not stated) | 14000 | 1000 | >20000 | – | 26 | 610 | 190 | – | – | – |
| – | C#CCN(Cc1ccc2[nH]c(N)nc(=O)c2c1)c1ccc(C(=O)NC(CCC(=O)O)C(=O)O)cc1 (configuration not stated) | 20 | 0.4 | 6400 | – | 0.13 | – | – | – | – | – |
| 1.3 | Nc1nc(O)c2c(n1)CCC(CO)C2 (configuration not stated) | – | – | – | – | – | – | – | – | – | – |

| SMILES | inhibition [1] [%] | Activity (Enterococcus faecium [2]) | Activity (Lacticaseibacillus casei [3]) | Activity (Lacticaseibacillus casei [4]) | Activity (Enterococcus faecium [5]) | Activity (Enterococcus faecium [6]) | IC50 (Thymidylate synthase [7]) [µM] | IC50 (Dihydrofolate reductase) [µM] | IC50 (Thymidylate synthase [8]) [µM] | IC50 (Thymidylate synthase [9]) [µM] | inhibition [10] [%] |
| --- | --- | --- | --- | --- | --- | --- | --- | --- | --- | --- | --- |
| CN(CC1CCc2nc(N)nc(O)c2C1)c1ccc(C(=O)NC(CCC(=O)O)C(=O)O)cc1 (configuration not stated) | 35.1 | 13 | 2.8 | >20000 | 0.57 | – | – | – | – | – | – |
